From patent US20250313572A1, “MACROCYCLIC MCL-1 INHIBITORS AND METHODS OF USE” (AbbVie Inc., priority 2017, published 2025)
Read-outs that look alike come from different tables or passages of the source.

How the values were obtained:
[1] = tested on: AMO-1 human multiple myeloma tumor cell line; test: AMO-1 cell viability assay (CellTiter-Glo, 24 hours); type: cell-based; conditions: Homo sapiens, AMO1, 24 h, read-out: AMO-1 Viability IC50 (μM, 10% FBS), 10% FBS, 24 hours of compound treatment
[2] = molecular target: GST-MCL-1 (Homo sapiens, UniProt Q07820); test: TR-FRET MCL-1 binding assay (competition with probe F-Bak)
GST-MCL-1, sequence (Q07820 whole entry): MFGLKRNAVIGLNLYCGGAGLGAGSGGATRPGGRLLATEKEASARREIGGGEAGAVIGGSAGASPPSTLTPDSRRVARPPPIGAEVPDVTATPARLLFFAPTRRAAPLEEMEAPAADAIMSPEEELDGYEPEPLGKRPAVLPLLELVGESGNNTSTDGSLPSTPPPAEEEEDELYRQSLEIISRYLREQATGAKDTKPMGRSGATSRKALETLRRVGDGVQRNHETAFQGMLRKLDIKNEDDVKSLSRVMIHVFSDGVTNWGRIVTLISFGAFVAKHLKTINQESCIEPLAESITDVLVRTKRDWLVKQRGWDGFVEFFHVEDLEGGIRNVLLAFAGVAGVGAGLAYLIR
Summary of the method: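 Displacement of F-Bak from GST-MCL-1 is detected by time-resolved FRET with a Tb-labelled anti-GST antibody, with excitation 340/35 nm and emission 520/525 and 495/510 nm, after 2 hours at room temperature. Compounds were titrated in 11 three-fold steps starting at 25 μM final, in buffer alone or in 10% HS.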

[3] = tested on: NCI-H929 human multiple myeloma tumor cell line; test: NCI-H929 cell viability assay (CellTiter-Glo, 24 hours); type: cell-based; conditions: Homo sapiens, NCI-H929, 24 h, read-out: H929 Viability IC50 (μM, 10% FBS), 10% FBS, 24 hours of compound treatment
[4] = MCL-1 Binding Ki (nM, 10% HS), in the presence of 10% HS (human serum)
[5] = without HS, read-out: MCL-1 Binding Ki

SMILES | IC50 [1] [pM] | Ki [2, 4] [nM] | Ki [2, 5] [nM] | IC50 [3] [µM]
COCCOCCOCCOc1ccccc1-c1nccc(COc2ccc3cc2C[C@@H](C(=O)O)Oc2ncnc4sc(-c5ccc(F)cc5)c(c24)-c2ccc(c(Cl)c2C)O[C@H](CN2CCN(C)CC2)CO3)n1 (atropisomer, axis not shown) [Example 2, (7S,16R,21S)-19-chloro-1-(4-fluorophenyl)-10-{[2-(2-{2-[2-(2-methoxyethoxy)ethoxy]ethoxy}phenyl)pyrimidin-4-yl]methoxy}-20-methyl-16-[(4-methylpiperazin-1-yl)methyl]-7,8,15,16-tetrahydro-18,21-etheno-9,13-(metheno)-6,14,17-trioxa-2-thia-3,5-diazacyclononadeca[1,2,3-cd]indene-7-carboxylic Acid] | 210000 | 76 | 4.1 | 0.276
Cc1c(Cl)c2c(Cl)c(C)c1-c1c(-c3ccc(F)cc3)sc3ncnc(c13)O[C@@H](C(=O)O)Cc1cc(ccc1OCc1ccnc(-c3ccccc3OC[C@H](O)CO)n1)OC[C@@H](CN1CCN(C)CC1)O2 [Example 23, (7R,16R)-19,23-dichloro-10-[(2-{2-[(2R)-2,3-dihydroxypropoxy]phenyl}pyrimidin-4-yl)methoxy]-1-(4-fluorophenyl)-20,22-dimethyl-16-[(4-methylpiperazin-1-yl)methyl]-7,8,15,16-tetrahydro-18,21-etheno-13,9-(metheno)-6,14,17-trioxa-2-thia-3,5-diazacyclononadeca[1,2,3-cd]indene-7-carboxylic Acid] | 2220 | 0.238 | 0.018 | 0.00389
COCCOCCOCCOCC1(c2nccc(COc3ccc4cc3C[C@H](C(=O)O)Oc3ncnc5sc(-c6ccc(F)cc6)c(c35)-c3c(C)c(Cl)c(c(Cl)c3C)O[C@H](CN3CCN(C)CC3)CO4)n2)CC1 [Example 29, (7R,16R)-19,23-dichloro-1-(4-fluorophenyl)-20,22-dimethyl-16-[(4-methylpiperazin-1-yl)methyl]-10-({2-[1-(2,5,8,11-tetraoxadodecan-1-yl)cyclopropyl]pyrimidin-4-yl}methoxy)-7,8,15,16-tetrahydro-18,21-etheno-13,9-(metheno)-6,14,17-trioxa-2-thia-3,5-diazacyclononadeca[1,2,3-cd]indene-7-carboxylic Acid] | 894 | 1.21 | 0.204 | 0.000942
COCCOCCOC[C@@H]1CC=C(c2nccc(COc3ccc4cc3C[C@H](C(=O)O)Oc3ncnc5sc(-c6ccc(F)cc6)c(c35)-c3c(C)c(Cl)c(c(Cl)c3C)O[C@H](CN3CCN(C)CC3)CO4)n2)CC1 [Example 128, (7R,16R)-19,23-dichloro-1-(4-fluorophenyl)-10-({2-[(4S)-4-{[2-(2-methoxyethoxy)ethoxy]methyl}cyclohex-1-en-1-yl]pyrimidin-4-yl}methoxy)-20,22-dimethyl-16-[(4-methylpiperazin-1-yl)methyl]-7,8,15,16-tetrahydro-18,21-etheno-13,9-(metheno)-6,14,17-trioxa-2-thia-3,5-diazacyclononadeca[1,2,3-cd]indene-7-carboxylic Acid] | 93.9 | 0.275 | 0.027 | 0.000313
Cc1c(Cl)c2c(Cl)c(C)c1-c1c(-c3ccc(F)cc3)sc3ncnc(c13)O[C@@H](C(=O)O)Cc1cc(ccc1OCc1ccnc(-c3ccc(OCCN4CC5CCC(C4)O5)cc3)n1)OC[C@@H](CN1CCN(C)CC1)O2 [Example 170, (7R,16R)-19,23-dichloro-1-(4-fluorophenyl)-20,22-dimethyl-16-[(4-methylpiperazin-1-yl)methyl]-10-[(2-{4-[2-(8-oxa-3-azabicyclo[3.2.1]octan-3-yl)ethoxy]phenyl}pyrimidin-4-yl)methoxy]-7,8,15,16-tetrahydro-18,21-etheno-13,9-(metheno)-6,14,17-trioxa-2-thia-3,5-diazacyclononadeca[1,2,3-cd]indene-7-carboxylic Acid] | 646 | 1.85 | 0.042 | 0.00278
COCCOCCOCCOCCOCCOCCOCCOCCOCCOCCOCCOCCOCC1(c2nccc(COc3ccc4cc3C[C@H](C(=O)O)Oc3ncnc5sc(-c6ccc(F)cc6)c(c35)-c3c(C)c(Cl)c(c(Cl)c3C)O[C@H](CN3CCN(C)CC3)CO4)n2)CCC1 [Example 44, (7R,16R)-19,23-dichloro-1-(4-fluorophenyl)-20,22-dimethyl-16-[(4-methylpiperazin-1-yl)methyl]-10-({2-[1-(2,5,8,11,14,17,20,23,26,29,32,35,38-tridecaoxanonatriacontan-1-yl)cyclobutyl]pyrimidin-4-yl}methoxy)-7,8,15,16-tetrahydro-18,21-etheno-13,9-(metheno)-6,14,17-trioxa-2-thia-3,5-diazacyclononadeca[1,2,3-cd]indene-7-carboxylic Acid] | 21100 | 0.224 | 0.124 | 0.0179
Cc1c(Cl)c2c(Cl)c(C)c1-c1c(-c3ccc(F)cc3)sc3ncnc(c13)O[C@@H](C(=O)O)Cc1cc(ccc1OCc1ccnc(-c3cccc(CN4CCS(=O)(=O)CC4)c3)n1)OC[C@@H](CN1CCN(C)CC1)O2 [Example 117, (7R,16R)-19,23-dichloro-10-[(2-{3-[(1,1-dioxo-1λ^6-thiomorpholin-4-yl)methyl]phenyl}pyrimidin-4-yl)methoxy]-1-(4-fluorophenyl)-20,22-dimethyl-16-[(4-methylpiperazin-1-yl)methyl]-7,8,15,16-tetrahydro-18,21-etheno-13,9-(metheno)-6,14,17-trioxa-2-thia-3,5-diazacyclononadeca[1,2,3-cd]indene-7-carboxylic Acid] | 205 | 0.219 | 0.025 | 0.000364
COCCOCCOCCOCC1CN(c2nccc(COc3ccc4cc3C[C@H](C(=O)O)Oc3ncnc5sc(-c6ccc(F)cc6)c(c35)-c3c(C)c(Cl)c(c(Cl)c3C)O[C@H](CN3CCN(C)CC3)CO4)n2)C1 [Example 94, (7R,16R)-19,23-dichloro-1-(4-fluorophenyl)-20,22-dimethyl-16-[(4-methylpiperazin-1-yl)methyl]-10-({2-[3-(2,5,8,11-tetraoxadodecan-1-yl)azetidin-1-yl]pyrimidin-4-yl}methoxy)-7,8,15,16-tetrahydro-18,21-etheno-9,13-(metheno)-6,14,17-trioxa-2-thia-3,5-diazacyclononadeca[1,2,3-cd]indene-7-carboxylic Acid] | 2030 | 1.08 | 0.181 | 0.00184
Cc1c(Cl)c2c(Cl)c(C)c1-c1c(-c3ccc(F)cc3)sc3ncnc(c13)O[C@@H](C(=O)O)Cc1cc(ccc1OCc1ccnc(N3CCOCCOCCOCCOCCOCC3)n1)OC[C@@H](CN1CCN(C)CC1)O2 [Example 116, (7R,16R)-19,23-dichloro-1-(4-fluorophenyl)-20,22-dimethyl-16-[(4-methylpiperazin-1-yl)methyl]-10-{[2-(1,4,7,10,13-pentaoxa-16-azacyclooctadecan-16-yl)pyrimidin-4-yl]methoxy}-7,8,15,16-tetrahydro-18,21-etheno-13,9-(metheno)-6,14,17-trioxa-2-thia-3,5-diazacyclononadeca[1,2,3-cd]indene-7-carboxylic Acid] | 2970 | 2.94 | 0.332 | 0.00798
COCCOCCOCCOCCOC[C@H]1CCCC[C@@H]1c1nccc(COc2ccc3cc2C[C@H](C(=O)O)Oc2ncnc4sc(-c5ccc(F)cc5)c(c24)-c2c(C)c(Cl)c(c(Cl)c2C)O[C@H](CN2CCN(C)CC2)CO3)n1 (relative stereo) [Example 124, (7R,16R)-19,23-dichloro-1-(4-fluorophenyl)-20,22-dimethyl-16-[(4-methylpiperazin-1-yl)methyl]-10-({2-[(1S*,2S*)-2-(2,5,8,11,14-pentaoxapentadecan-1-yl)cyclohexyl]pyrimidin-4-yl}methoxy)-7,8,15,16-tetrahydro-18,21-etheno-13,9-(metheno)-6,14,17-trioxa-2-thia-3,5-diazacyclononadeca[1,2,3-cd]indene-7-carboxylic Acid] | 355 | 0.145 | 0.012 | 0.000818
Cc1c(Cl)c2c(Cl)c(C)c1-c1c(-c3ccc(F)cc3)sc3ncnc(c13)O[C@@H](C(=O)O)Cc1cc(ccc1OCc1ccnc(-c3ccc(OCCN4CCP(C)(=O)CC4)cc3)n1)OC[C@@H](CN1CCN(C)CC1)O2 [Example 71, (7R,16R)-19,23-dichloro-1-(4-fluorophenyl)-20,22-dimethyl-10-[(2-{4-[2-(4-methyl-4-oxo-1, 4λ^5-azaphosphinan-1-yl)ethoxy]phenyl}pyrimidin-4-yl)methoxy]-16-[(4-methylpiperazin-1-yl)methyl]-7,8,15,16-tetrahydro-18,21-etheno-13,9-(metheno)-6,14,17-trioxa-2-thia-3,5-diazacyclononadeca[1,2,3-cd]indene-7-carboxylic Acid] | 4680 | 0.106 | 0.039 | 0.00851
Cc1c2ccc(c1Cl)O[C@H](CN1CCN(C)CC1)COc1ccc(OCc3ccnc(-c4cccc(=O)n4C)n3)c(c1)C[C@H](C(=O)O)Oc1ncnc3sc(-c4ccc(F)cc4)c-2c13 [Example 28, (7R,16R)-19-chloro-1-(4-fluorophenyl)-20-methyl-10-{[2-(1-methyl-6-oxo-1,6-dihydropyridin-2-yl)pyrimidin-4-yl]methoxy}-16-[(4-methylpiperazin-1-yl)methyl]-7,8,15,16-tetrahydro-18,21-etheno-13,9-(metheno)-6,14,17-trioxa-2-thia-3,5-diazacyclononadeca[1,2,3-cd]indene-7-carboxylic Acid] | 2690 | 0.027 | 0.021 | 0.00583
